Laboratory results published in US20060252698A1, “Compounds for inhibiting cathepsin activity” (priority 2005, published 2006).
Starred links: 1 amine or outer side, 2 acyl side, 3 side chain; linkers in the order of their positions; H or OH if unused. Non-standard residues stand in square brackets, D forms with d. Residues, ends and D or L forms follow the SMILES beside them. *: point of attachment. Pro(3S,4R-methano) = O=C(O)[C@H]1NC[C@@H]2C[C@@H]21; X3 = C=CCCC(N[*:1])C(=O)C(=O)[*:2]; X2 = CCCC(N[*:1])C(=O)C(=O)[*:2]; Tic = O=C(O)[C@@H]1Cc2ccccc2CN1; Chg = N[C@H](C(=O)O)C1CCCCC1; Phg = N[C@H](C(=O)O)c1ccccc1; Boc = CC(C)(C)OC(=O)*

Target: T1, Human Liver Cathepsin L (Homo sapiens, UniProt P07711)
T1 construct: purchased Calbiochem 219402
T1 sequence (P07711 114-288 limits assumed): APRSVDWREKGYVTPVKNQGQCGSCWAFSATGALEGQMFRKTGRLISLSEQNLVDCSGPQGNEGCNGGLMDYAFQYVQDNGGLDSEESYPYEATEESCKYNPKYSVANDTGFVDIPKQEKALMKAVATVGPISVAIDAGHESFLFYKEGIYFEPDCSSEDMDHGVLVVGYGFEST
T1 sequence (P07711 292-333 limits assumed): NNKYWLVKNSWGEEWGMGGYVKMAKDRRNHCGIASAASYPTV
Experiment: Cathepsin L inhibition assay (kinetic, Z-Phe-Arg-pNA substrate)
Type: biochemical
Conditions: Z-Phe-Arg-pNA 120 μM, enzyme 12 nM, pH 5.5, read at 410 nm
Description: Cathepsin Assay Protocols:
• 1. 96-well Round or V-bottom microplates for dilutions • 2. 96-well COSTAR UV microplates for assay (COSTAR cat.#3635) • 3. Bio-Spin 6 Chromatography Columns (BIO-RAD cat.#732-6002). • 4. 12-75 mm test tubes • 5. Falcon 50 ml tubes • 6. Falcon 14 ml tubes • 7. 1.5 ml eppendorf tube • 8. ≦10 ml buffer reservoir Reagents: • 1. Enzyme: Cathepsin G, M.W.23,500, 10 μM stock. • 2. Substrate:Suc-Ala-Ala-Pro-Phe-pNA, M.W. 624.65, prep. 100 mM [62.465 mg/ml] stock. • 3. Buffer: [50 mM HEPES, 500 mM NaCl, 5 μM EDTA, pH 7.14], 5 μM DTT Instrument Settings: SpectraMax Plus • 1. Kinetic assay reading@405 nm • 2. Read interval: 30 seconds • 3. Time: 1 hour • 4. OD Min: −0.001 • 5. OD Max: 0.5 • 6. Data Mode: Absorbance • 7. e405=194.078 μM/O.D. Procedure: • 1. Add 73 μl of buffer to all wells. • 2. Add […] of buffer to (−E) controls. • 3. Add 7 μl of sample and/or DMSO for controls to appropriate wells. • 4. Prep. substrate: 100 mM (62.465 mg/ml) stock in 100% DMSO. • 5. Dilute 1:20 in buffer. 75 μl in 1.425 ml. 5 mM final. • 6. Add 20 μl of 5 mM substrate to all wells. 500 μM final. • 7. Dilute enzyme (1:50) in buffer; Add 120 μl to 5,880 μl buffer. 2×[200 nM] final. • 8. Add 100 μl of 2× [200 nM] enzyme to assigned wells, except (−E) controls. [100 nM] final. • 11. Vortex 20 seconds. Read@ 405 nM every 30 seconds for 1 hour on SpectraMax Plus • Endpoint assay reading plate@ 600 nM. Used for the detection of precipitation. Cathepsin H: Materials: • 1. 96-well Round or V-bottom microplates for dilutions • 2. 96-well COSTAR UV microplates for assay (COSTAR cat.#3635) • 3. Bio-Spin 6 Chromatography Columns (BIO-RAD cat.#732-6002) • 4. 12-75 mm test tubes • 5. Falcon 50 ml tubes • 6. Falcon 14 ml tubes • 7. 1.5 ml eppendorf tube • 8. ≧10 ml buffer reservoir Reagents: • 1. Enzyme: Cathepsin H, M.W.28,000, 9.07 μM stock. • 2. Substrate:H-Arg-pNA, M.W. 367.2, prep. 50 mM [18.36 mg/ml] stock. • 3. Buffer: [100 mM NaP04, 1 mM EDTA, 1 mM DTT, pH 6.5 Instrument Settings: SpectraMax Plus • 1. Kinetic assay reading@410 nM • 2. Read interval: 30 seconds • 3. Time: 1 hour • 4. OD Min: −0.001 • 5. OD Max: 0.05 • 6. Data Mode: Absorbance • 7. e410=188.415 μM/O.D. Km=108±5 μM Procedure: • 1. Prep. substrate: 50 mM (18.36 mg/ml) stock in 100% DMSO. • 2. Add 73 μl of buffer to all wells. • 3. Add 7 μl of sample to appropriate wells: a.) 100% DMSO for (+E) & (−E) controls. • 4. Add 100 μl of buffer to (−E) controls. • 5. Dilute substrate (1:20) in buffer; Add 140 μl to 2.66 ml buffer while vortexing. [2.5 mM] final. • 6. Add 20 μl of substrate to all wells. Vortex 3-5 seconds. [250 μM] final. • 7. Dilute enzyme (1:64.8) in buffer; Add 179 μl to 11.418 ml buffer. 2× [140 nM] final. • 8. Add 100 μl of 2× [140 nM] enzyme to assigned wells, except (−E) controls. [70 nM] final. • 9. Read@410 nM every 30 seconds for 1 hour on SpectraMax Plus Cathepsin L: Materials: • 1. 96-well Round or V-bottom microplates for dilutions • 2. 96-well COSTAR UV microplates for assay (COSTAR cat.#3635) • 3. Falcon 50 ml tubes • 4. Falcon 14 ml tubes • 5. 1.5 ml eppendorf tube • 6. 10 ml buffer reservoir Reagents: • 1. Enzyme: Calbiochem #219402: Cathepsin L, M.W.29,000, 11.62 μM stock. Lot#B45683 • 2. Substrate: Bachem #L-1242: Z-Phe-Arg-pNA, M.W. 612.09, prep. 4.8 mM [2.938 mg/ml] stock in 100% DMSO. • 3. Buffer: [100 mM NaP04, 1 mM EDTA, pH 5.5] Supplement buffer w/1 mM DTT, day of assay. Experiment #1: • Instrument settings: SpectraMax Plus microtiter plate reader (Molecular Devices, Sunnydale, Calif.) • 1. Kinetic assay reading@410 nM • 2. Read interval: 30 seconds • 3. Time: 1 hour • 4. OD Min: −0.001 • 5. OD Max: 0.05 • 6. Data Mode: Absorbance • 7. ε410=161.311 μM/O.D. Km=56±8 μM Procedure: • 1. Add 88 μl of buffer to all wells. • 2. Add 7 μl of sample or 100% DMSO to appropriate wells. • 3. Add 100 μl of buffer to (−E) controls. • 5. Add 5 μ 4.8 mM] substrate to all wells. [120 μM] final. • 6. Vortex 3-5 seconds. • 7. Dilute enzyme (1:483.87) in buffer; Add 24.8 μl to 12,000 μl buffer. 2×[24 nM] final. • 8. […]

| Ki | SMILES |
| --- | --- |
| 0.036 µM | CCCC(NC(=O)[C@@H]1Cc2ccccc2CN1C(=O)[C@@H](NC(=O)OC(C)(C)C)C1CCCCC1)C(=O)C(=O)NCC(=O)N[C@H](C(=O)NC)c1ccccc1 (some centres unmarked) (Boc-[Chg][Tic][X2]G[Phg]-NHMe) |
| 0.55 µM | CC(C)(C)OC(=O)N[C@H]1CCCCCCCC[C@@H](C(=O)C(N)=O)NC(=O)[C@@H]2[C@@H]3[C@H](CN2C1=O)C3(C)C |
| 0.014 µM | CC(C)(C)OC(=O)N[C@H](C(=O)N1CC2CCCC2[C@H]1C(=O)NC(CC1CC1)C(=O)C(N)=O)C1CCCCC1 (some centres unmarked) |
| 0.017 µM | CCCC(NC(=O)[C@@H]1C[C@@H]2CN1C(=O)C(C1CCCCC1)NC(=O)Cc1cccc(c1)OCCCC(C)(C)C2)C(=O)C(N)=O (some centres unmarked) |
| 0.02 µM | CC(C)(C)OC(=O)N[C@H](C(=O)N1c2ccccc2C[C@H]1C(=O)NC(CC1CC1)C(=O)C(N)=O)C1CCCCC1 (some centres unmarked) |
| 0.07 µM | CCCC(NC(=O)[C@@H]1[C@@H]2CCN1C(=O)[C@H](C(C)(C)C)NC(=O)Cc1cccc(c1)OCCCO2)C(=O)C(=O)NCC(=O)N[C@H](C(=O)N(C)C)c1ccccc1 (some centres unmarked) |
| 0.08 µM | CCCC(NC(=O)[C@@H]1Cc2ccc3cc2CN1C(=O)[C@H](C1CCCCC1)NC(=O)CCCCCCO3)C(=O)C(N)=O (some centres unmarked) |
| 0.3 µM | CC(C)(C)NC(=O)N[C@H]1CCCCCCCCCC[C@@H](C(=O)C(N)=O)NC(=O)[C@@H]2[C@@H]3[C@H](CN2C1=O)C3(C)C |
| 0.25 µM | CC1(C)CC(=O)N(C[C@@H](NC(=O)N[C@H]2CCCCCCCCC[C@@H](C(=O)C(=O)NC3CC3)NC(=O)[C@@H]3[C@@H]4[C@H](CN3C2=O)C4(C)C)C(C)(C)C)C(=O)C1 |
| 0.366 µM | C=CCNC(=O)C(=O)[C@@H]1CCCCCCCCC[C@H](NC(=O)N[C@H](CN2CCC(C)(C)CC2=O)C(C)(C)C)C(=O)N2C[C@H]3[C@@H]([C@H]2C(=O)N1)C3(C)C |
| 0.104 µM | CCC[C@H](NC(=O)[C@@H]1[C@H]2CCC[C@H]2CN1C(=O)[C@@H](NC(=O)[C@@H](NC(=O)c1cnccn1)C1CCCCC1)C(C)(C)C)C(=O)C(=O)NC1CC1 |

Continued, compound first:

| SMILES | Ki |
| --- | --- |
| CC(=O)N[C@@H](CC(C)C)C(=O)N[C@@H](CC(C)C)C(=O)N[C@H](C=O)CCCNC(=N)N [drawing 710] | 0.0048 µM |
| CC(C)(C)NC(=O)N[C@H](C(=O)N1C[C@H]2[C@@H]([C@H]1C(=O)NC(CC1CCC1)C(=O)C(N)=O)C2(C)C)C(C)(C)C (some centres unmarked) | 0.076 µM |
| C=CCNC(=O)C(=O)[C@H](CCCC)NC(=O)[C@@H]1[C@@H]2[C@H](CN1C(=O)[C@@H](NC(=O)NC1([C@H]3CCCS3(=O)=O)CCCCC1)C(C)(C)C)C2(C)C [drawing 681] | 0.14 µM |
| CC(=O)N[C@@H](CC(C)C)C(=O)N[C@@H](CC(C)C)C(=O)N[C@H](C=O)CCCNC(=N)N [drawing 687] | 0.009 µM |
| CCCC[C@H](NC(=O)[C@@H]1[C@@H]2[C@H](CN1C(=O)[C@@H](NC(=O)NC1(CS(=O)(=O)C(C)C)CCCCC1)C(C)(C)C)C2(C)C)C(=O)C(=O)NC1CC1 | 0.038 µM |
| C=CCNC(=O)C(=O)C(CCC)NC(=O)[C@@H]1CCCN1C(=O)[C@@H](NC(=O)NC1(CS(C)(=O)=O)CCCCC1)C(C)(C)C (some centres unmarked) | 0.74 µM |
| C=CCCC(NC(=O)[C@@H]1[C@H]2C[C@H]2CN1C(=O)[C@@H](NC(=O)OC(C)(C)C)C1CCCCC1)C(=O)C(=O)NCC(=O)N[C@H](C(=O)N(C)C)c1ccccc1 (stereo partly drawn) (Boc-[Chg][Pro(3S,4R-methano)][X3]G[Phg]-NMe2) | 0.27 µM |
| CC(=O)N[C@@H](CC(C)C)C(=O)N[C@@H](CC(C)C)C(=O)N[C@H](C=O)CCCNC(=N)N [drawing 689] | 0.008 µM |
| CN(C)C(=O)c1nc(CNC(=O)C(=O)C(CC2CCC2)NC(=O)[C@@H]2[C@@H]3[C@H](CN2C(=O)[C@@H](NC(=O)NC(C)(C)C)C(C)(C)C)C3(C)C)sc1-c1ccccc1 (some centres unmarked) | 0.19 µM |
| CCCC[C@H](NC(=O)[C@@H]1[C@@H]2[C@H](CN1C(=O)[C@@H](NC(=O)NC1(CS(=O)(=O)C(C)(C)C)CCCCC1)C(C)(C)C)C2(C)C)C(=O)C(=O)NC1CC1 [drawing 667] | 0.04 µM |
| C=CCNC(=O)C(=O)[C@@H]1CCCCCCCCC[C@H](NC(=O)NC2(CS(=O)(=O)C(C)(C)C)CCCCC2)C(=O)N2C[C@H]3[C@@H]([C@H]2C(=O)N1)C3(C)C [drawing 653] | 0.01 µM |
| CC(C)(C)OC(=O)N[C@H](C(=O)N1CCC[C@H]1C(=O)NC(CC1CCC1)C(=O)C(N)=O)C(C)(C)C (some centres unmarked) | 1.9 µM |
| C=CCNC(=O)C(=O)[C@H](CCC1CC1)NC(=O)[C@@H]1[C@@H]2[C@H](CN1C(=O)[C@@H](NC(=O)NC1(CS(=O)(=O)C(C)(C)C)CCCCC1)C(C)(C)C)C2(C)C [drawing 669] | 0.04 µM |
| CN(C)C(=O)[C@@H](NC(=O)CNC(=O)C(=O)C(CC1CC1)NC(=O)[C@@H]1[C@H]2CC(C)(C)O[C@H]2CN1C(=O)[C@@H](NC(=O)OC(C)(C)C)C1CCCCC1)c1ccccc1 (some centres unmarked) | 0.097 µM |
| CCC1C[C@]1(NC(=O)[C@@H]1C[C@H](Oc2cc(-c3ccccc3)nc3cc(OC)ccc23)CN1C(=O)[C@@H](NC(=O)OC(C)(C)C)C(C)C)C(=O)O (some centres unmarked) | 0.1 µM |
| CC(C)(C)[C@H](NC(=O)NC1(CS(=O)(=O)C(C)(C)C)CCCCC1)C(=O)N1C[C@H]2[C@@H]([C@H]1C(=O)N[C@@H](CCC1CC1)C(=O)C(=O)NC1CC1)C2(C)C [drawing 671] | 0.047 µM |
| CC(C)C[C@@H](C(=O)NC(CC1CC1)C(=O)C(N)=O)C1CCCCCC[C@H](NC(=O)OC(C)(C)C)C1=O (some centres unmarked) | 0.025 µM |
| CC1(C)C2CN(C(=O)[C@@H](NC(=O)NC3CCCCC3)C(C)(C)C)[C@H](C(=O)NC(CC3CCC3)C(=O)C(N)=O)C21 (some centres unmarked) | 0.063 µM |
| C=CCNC(=O)C(=O)[C@@H]1CCCCCCCCC[C@H](NC(=O)NC2(CS(=O)(=O)C(C)(C)C)CCCCC2)C(=O)N2C[C@H]3[C@@H]([C@H]2C(=O)N1)C3(C)C [drawing 699] | 0.06 µM |
| CCC[C@H](NC(=O)[C@@H]1[C@@H]2[C@H](CN1C(=O)[C@@H](NC(=O)NC1([C@H]3CCCS3(=O)=O)CCCCC1)C1(C)CCCCC1)C2(C)C)C(=O)C(=O)NC1CC1 | 0.031 µM |
| C=CCNC(=O)C(=O)[C@H](CCCC)NC(=O)[C@@H]1[C@@H]2[C@H](CN1C(=O)[C@@H](NC(=O)NC1([C@H]3CCCS3(=O)=O)CCCCC1)C(C)(C)C)C2(C)C [drawing 672] | 0.049 µM |
